These results are taken from the SangsterLogP compilation.

The data set in a line: method code SF, from DOI: 10.1021/jf00073a025.
As to `CCCC1OCS/C1=N\OC(=O)NC` (centres undefined), the logP came to 1.52.

Consider `CNC(=O)ON=C1SCOC1C` (stereo in doubt), for which the logP came out at 0.46. `CNC(=O)O/N=C1\SCSC1C` (centres undefined) registered a logP of 0.91.

Molecule `CNC(=O)O/N=C1/COCS1` had a logP of 0.06. Take `CNC(=O)ON=C1CSCCS1`: the logP came to 0.49. With `CNC(=O)ON=C1CSC(C)(C)S1` the figure was 1.33; with `CNC(=O)O/N=C1/SCOC1(C)C`, 0.82; with `CNC(=O)O/N=C1\SCOC1C(C)C` (centres undefined), 1.48. With `CNC(=O)ON=C1COCCS1` (stereo in doubt) the figure was -0; with `CNC(=O)ON=C1SCSC1(C)C`, 1.31. With `CNC(=O)O/N=C1/CSCS1` the figure was 0.51. For `CNC(=O)O/N=C1/SC(C)OC1C` (centres undefined), the logP turned out to be 0.96. With `CNC(=O)O/N=C1\SCOC1CCOC` (centres undefined) the figure was 0.51. `CNC(=O)O/N=C1\SCCSC1(C)C` returned a lipophilicity (logP) of 1.51.

One may read the logP as a log measure of how a compound divides between an organic and an aqueous phase. Read a low logP as lower lipophilicity.
